The numbers were not newly measured in patent US20110281813A1, “METHOD OF TREATING C-KIT POSITIVE RELAPSED ACUTE MYELOID LEUKEMIA” (priority 2008, published 2011), which cites them from elsewhere.

This data set deals with relapsed/ refractory AML.

Molecules are shown by their SMILES. Where a name gives a salt, the structure may show the parent alone.

As to `Cc1ccc(NC(=O)c2ccc(CN3CCN(C)CC3)cc2)cc1Nc1nccc(-c2cccnc2)n1` [Imatinib mesylate, 4-(4-methylpiperazin-1-ylmethyl)-N-[4-methyl-3-(4-(pyridin-3-yl)pyrimidin-2-ylamino)phenyl]-benzamide], the single agent activity result is reported as “has single agent activity”.
